Reference: US20260285875A1, “INHIBITORS OF PARG” (858 Therapeutics, Inc., priority 2023, published 2026)

Each molecule was assayed against T1, cellular PARG (Homo sapiens, UniProt Q86W56) (assay: Nuclear PAR accumulation assay (immunofluorescence high-content imaging, MMS-treated HeLa cells)). Conditions: 1 hour compound then MMS 50 μg/mL for an additional hour.
T1 construct: endogenous in cells; host or cells: HeLa
Type: cell-based
Summary of the method: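 HeLa cells pretreated with compound for 1 h at 37° C, then given 50 μg/mL MMS for another hour. After methanol fixation, PAR was immunostained with DAPI nuclear counterstain; per-nucleus intensity and percent PAR-positive cells were imaged at 20× (≥1,000 cells/well). IC50 from four-parameter logistic fit.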

T1 sequence (Q86W56 whole entry): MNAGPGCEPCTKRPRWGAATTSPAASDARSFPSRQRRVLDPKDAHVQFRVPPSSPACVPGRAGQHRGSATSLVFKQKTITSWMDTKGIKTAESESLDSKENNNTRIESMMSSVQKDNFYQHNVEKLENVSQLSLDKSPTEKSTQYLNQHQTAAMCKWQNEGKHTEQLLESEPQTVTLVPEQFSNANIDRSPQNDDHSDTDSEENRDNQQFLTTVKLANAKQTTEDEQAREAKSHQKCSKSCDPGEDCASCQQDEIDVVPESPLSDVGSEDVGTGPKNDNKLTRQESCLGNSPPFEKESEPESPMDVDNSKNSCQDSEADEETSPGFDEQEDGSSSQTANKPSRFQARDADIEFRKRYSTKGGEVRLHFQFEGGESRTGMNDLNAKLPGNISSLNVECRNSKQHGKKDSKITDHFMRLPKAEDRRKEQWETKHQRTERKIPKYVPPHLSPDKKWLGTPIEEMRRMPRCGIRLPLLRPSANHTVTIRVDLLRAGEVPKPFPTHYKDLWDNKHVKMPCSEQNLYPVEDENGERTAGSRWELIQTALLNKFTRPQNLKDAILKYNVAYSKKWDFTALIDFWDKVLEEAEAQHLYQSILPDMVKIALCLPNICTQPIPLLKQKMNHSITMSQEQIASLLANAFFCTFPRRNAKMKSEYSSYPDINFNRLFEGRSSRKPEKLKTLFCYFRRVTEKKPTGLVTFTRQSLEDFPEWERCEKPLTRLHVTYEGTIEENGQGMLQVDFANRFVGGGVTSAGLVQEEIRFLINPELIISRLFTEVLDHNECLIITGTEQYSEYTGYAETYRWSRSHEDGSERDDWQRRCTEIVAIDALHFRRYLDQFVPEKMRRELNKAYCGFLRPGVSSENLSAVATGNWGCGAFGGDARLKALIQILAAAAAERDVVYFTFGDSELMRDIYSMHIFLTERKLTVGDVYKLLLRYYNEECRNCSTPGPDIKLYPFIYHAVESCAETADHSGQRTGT

`CN1C(=O)c2cc(S(=O)(=O)NC3(C)CC3)ccc2N2C1=NCC2C#Cc1ccc(C#N)nc1` (centres unmarked) [Example 202, 1-((6-cyanopyridin-3-yl)ethynyl)-4-methyl-N-(1-methylcyclopropyl)-5-oxo-1,2,4,5-tetrahydroimidazo[1,2-a]quinazoline-7-sulfonamide] and `Cc1ccc(C#CC2CN=C3N(C)C(=O)c4cc(S(=O)(=O)NC5(C)CC5)ccc4N32)cn1` (centres unmarked) [Example 203, 4-methyl-N-(1-methylcyclopropyl)-1-((6-methylpyridin-3-yl)ethynyl)-5-oxo-1,2,4,5-tetrahydroimidazo[1,2-a]quinazoline-7-sulfonamide] cannot be ordered by IC50: under 100 nM for the first, under 100 nM for the second.

`COc1ccc(C#CC2CN=C3N(C)C(=O)c4cc(S(=O)(=O)NC5(C)CC5)ccc4N32)cn1` (centres unmarked) [Example 204, 1-((6-methoxypyridin-3-yl)ethynyl)-4-methyl-N-(1-methylcyclopropyl)-5-oxo-1,2,4,5-tetrahydroimidazo[1,2-a]quinazoline-7-sulfonamide] and `COc1cc(C#CC2CN=C3N(C)C(=O)c4cc(S(=O)(=O)NC5(C)CC5)ccc4N32)ccn1` (centres unmarked) [Example 227, 1-((2-methoxypyridin-4-yl)ethynyl)-4-methyl-N-(1-methylcyclopropyl)-5-oxo-1,2,4,5-tetrahydroimidazo[1,2-a]quinazoline-7-sulfonamide] cannot be ordered by IC50: under 100 nM for the first, under 100 nM for the second.

First: CCN1C(=O)c2cc(S(=O)(=O)NC3(C)CC3)ccc2N2C1=NC[C@H]2C#Cc1cnn2c1OCC(NC)C2 (stereo partly drawn) [Example 205, (1R)-4-ethyl-1-((6-(methylamino)-6,7-dihydro-5H-pyrazolo[5,i-b][1,3]oxazin-3-yl)ethynyl)-N-(1-methylcyclopropyl)-5-oxo-1,2,4,5-tetrahydroimidazo[1,2-a]quinazoline-7-sulfonamide]
Second: CCN1C(=O)c2cc(S(=O)(=O)NC3(C)CC3)ccc2N2C1=NC[C@H]2C#Cc1c2ncccc2nn1C [Example 208, (R)-4-ethyl-1-((2-methyl-2H-pyrazolo[4,3-b]pyridin-3-yl)ethynyl)-N-(1-methylcyclopropyl)-5-oxo-1,2,4,5-tetrahydroimidazo[1,2-a]quinazoline-7-sulfonamide]
The IC50 of the first is higher: 100 to 1000 nM for the first, under 100 nM for the second.

`CCN1C(=O)c2cc(S(=O)(=O)NC3(C)CC3)ccc2N2C1=NC[C@H]2C#Cc1cnc2cc(C#N)cnn12` [Example 206, (R)-1-((7-cyanoimidazo[1,2-b]pyridazin-3-yl)ethynyl)-4-ethyl-N-(1-methylcyclopropyl)-5-oxo-1,2,4,5-tetrahydroimidazo[1,2-a]quinazoline-7-sulfonamide] and `CN1C(=O)c2cc(S(=O)(=O)NC3(C)CC3)ccc2N2C1=NCC2C#Cc1cnc2cc(C(F)(F)F)cnn12` (centres unmarked) [Example 209, 4-methyl-N-(1-methylcyclopropyl)-5-oxo-1-((7-(trifluoromethyl)imidazo[1,2-b]pyridazin-3-yl)ethynyl)-1,2,4,5-tetrahydroimidazo[1,2-a]quinazoline-7-sulfonamide] cannot be ordered by IC50: under 100 nM for the first, under 100 nM for the second.

`CCn1nccc1C#C[C@@H]1CN=C2N(Cc3cnn(C)c3)C(=O)c3cc(S(=O)(=O)NC4(C)CC4)ccc3N21` [Example 207, (R)-1-((1-ethyl-1H-pyrazol-5-yl)ethynyl)-4-((1-methyl-1H-pyrazol-4-yl)methyl)-N-(1-methylcyclopropyl)-5-oxo-1,2,4,5-tetrahydroimidazo[1,2-a]quinazoline-7-sulfonamide] and `[2H]C([2H])([2H])n1nccc1C#C[C@@H]1CN=C2N(Cc3cnn(C)c3)C(=O)c3cc(S(=O)(=O)NC4(C)CC4)ccc3N21` [Example 211, (R)-4-((1-methyl-1H-pyrazol-4-yl)methyl)-1-((1-(methyl-d3)-1H-pyrazol-5-yl)ethynyl)-N-(1-methylcyclopropyl)-5-oxo-1,2,4,5-tetrahydroimidazo[1,2-a]quinazoline-7-sulfonamide] cannot be ordered by IC50: under 100 nM for the first, under 100 nM for the second.

`Cn1cc(CN2C(=O)c3cc(S(=O)(=O)NC4(C)CC4)ccc3N3C2=NC[C@H]3C#Cc2ccnn2C(F)F)cn1` [Example 210, (R)-1-((1-(difluoromethyl)-1H-pyrazol-5-yl)ethynyl)-4-((1-methyl-1H-pyrazol-4-yl)methyl)-N-(1-methylcyclopropyl)-5-oxo-1,2,4,5-tetrahydroimidazo[1,2-a]quinazoline-7-sulfonamide] and `Cn1cc(CN2C(=O)c3cc(S(=O)(=O)NC4(C)CC4)ccc3N3C2=NC[C@H]3C#Cc2cnc3cccnn23)cn1` [Example 221, (R)-1-(imidazo[1,2-b]pyridazin-3-ylethynyl)-4-((1-methyl-1H-pyrazol-4-yl)methyl)-N-(1-methylcyclopropyl)-5-oxo-1,2,4,5-tetrahydroimidazo[1,2-a]quinazoline-7-sulfonamide] cannot be ordered by IC50: under 100 nM for the first, under 100 nM for the second.

First: [2H]C([2H])(c1cnn(C)c1)N1C(=O)c2cc(S(=O)(=O)NC3(C)CC3)c(F)cc2N2C1=N[C@H]1CCC[C@H]12 [Example 212, (7aS,10aR)-2-fluoro-6-((1-methyl-1H-pyrazol-4-yl)methyl-d2)-N-(1-methylcyclopropyl)-5-oxo-6,7a,8,9,10,10a-hexahydro-5H-cyclopenta[4,5]imidazo[1,2-a]quinazoline-3-sulfonamide]
Second: [2H]C([2H])(c1cnn(C)c1)N1C(=O)c2cc(S(=O)(=O)NC3(C)CC3)c(OC)cc2N2C1=N[C@H]1CCC[C@H]12 [Example 213, (7aS,10aR)-2-methoxy-6-((1-methyl-1H-pyrazol-4-yl)methyl-d2)-N-(1-methylcyclopropyl)-5-oxo-6,7a,8,9,10,1Oa-hexahydro-5H-cyclopenta[4,5]imidazo[1,2-a]quinazoline-3-sulfonamide]
The IC50 of the first is lower: under 100 nM for the first, 100 to 1000 nM for the second. The first is the more potent here.

Compared with `[2H]C([2H])(c1cnn(C)c1)N1C(=O)c2cc(S(=O)(=O)NC3(C)CC3)c(N(C)C)cc2N2C1=N[C@H]1CCC[C@H]12` [Example 214, (7aS,10aR)-2-(dimethylamino)-6-((1-methyl-1H-pyrazol-4-yl)methyl-d2)-N-(1-methylcyclopropyl)-5-oxo-6,7a,8,9,10,10a-hexahydro-5H-cyclopenta[4,5]imidazo[1,2-a]quinazoline-3-sulfonamide], `[2H]C([2H])(c1cnn(C)c1)N1C(=O)c2cc(S(=O)(=O)NC3(C)CC3)c(NC)cc2N2C1=N[C@H]1CCC[C@H]12` [Example 222, (7aS,10aR)-6-((1-methyl-1H-pyrazol-4-yl)methyl-d2)-2-(methylamino)-N-(1-methylcyclopropyl)-5-oxo-6,7a,8,9,10,10a-hexahydro-5H-cyclopenta[4,5]imidazo[1,2-a]quinazoline-3-sulfonamide] is lower in IC50: 1000 to 10000 nM for the first, under 100 nM for the second.

`CN1C(=O)c2cc(S(=O)(=O)NC3(C)CC3)c(F)cc2N2C1=NCC2C#Cc1cnc2cccnn12` (centres unmarked) [Example 215, 8-fluoro-1-(imidazo[1,2-b]pyridazin-3-ylethynyl)-4-methyl-N-(1-methylcyclopropyl)-5-oxo-1,2,4,5-tetrahydroimidazo[1,2-a]quinazoline-7-sulfonamide] and `CN1C(=O)c2cc(S(=O)(=O)NC3(C)CC3)ccc2N2C1=NCC2C#Cc1ccnc(F)c1` (centres unmarked) [Example 224, 1-((2-fluoropyridin-4-yl)ethynyl)-4-methyl-N-(1-methylcyclopropyl)-5-oxo-1,2,4,5-tetrahydroimidazo[1,2-a]quinazoline-7-sulfonamide] cannot be ordered by IC50: under 100 nM for the first, under 100 nM for the second.

First: Cc1cc(C#C[C@@H]2CN=C3N(C)C(=O)c4cc(S(=O)(=O)NC5(C)CC5)ccc4N32)ccn1 [Example 216, (R)-4-methyl-N-(1-methylcyclopropyl)-1-((2-methylpyridin-4-yl)ethynyl)-5-oxo-1,2,4,5-tetrahydroimidazo[1,2-a]quinazoline-7-sulfonamide]
Second: CN1C(=O)c2cc(S(=O)(=O)NC3(C)CC3)ccc2N2C1=NCC2C#Cc1ccnc(C(F)(F)F)c1 (centres unmarked) [Example 226, 4-methyl-N-(1-methylcyclopropyl)-5-oxo-1-((2-(trifluoromethyl)pyridin-4-yl)ethynyl)-1,2,4,5-tetrahydroimidazo[1,2-a]quinazoline-7-sulfonamide]
The IC50 of the first is lower: under 100 nM for the first, 100 to 1000 nM for the second. The first is the more potent here.

`Cn1cc(CN2C(=O)c3cc(S(=O)(=O)NC4(C)CC4)ccc3N3C2=NC[C@H]3C#Cc2c(F)cnn2C)cn1` [Example 217, (R)-1-((4-fluoro-1-methyl-1H-pyrazol-5-yl)ethynyl)-4-((1-methyl-1H-pyrazol-4-yl)methyl)-N-(1-methylcyclopropyl)-5-oxo-1,2,4,5-tetrahydroimidazo[1,2-a]quinazoline-7-sulfonamide] and `Cc1nn(C)cc1C#C[C@@H]1CN=C2N(Cc3cnn(C)c3)C(=O)c3cc(S(=O)(=O)NC4(C)CC4)ccc3N21` [Example 218, (R)-1-((1,3-dimethyl-1H-pyrazol-4-yl)ethynyl)-4-((1-methyl-1H-pyrazol-4-yl)methyl)-N-(1-methylcyclopropyl)-5-oxo-1,2,4,5-tetrahydroimidazo[1,2-a]quinazoline-7-sulfonamide] cannot be ordered by IC50: under 100 nM for the first, under 100 nM for the second.

Compared with `C[C@@H]1CON=C2N(Cc3cnn(C)c3)C(=O)c3cc(S(=O)(=O)NC4(C)CC4)ccc3N21` [Example 219, (R)-1-methyl-5-((1-methyl-1H-pyrazol-4-yl)methyl)-N-(1-methylcyclopropyl)-6-oxo-1,2,5,6-tetrahydro-[1,2,4]oxadiazino[4,3-a]quinazoline-8-sulfonamide], `C[C@H]1CON=C2N(Cc3cnn(C)c3)C(=O)c3cc(S(=O)(=O)NC4(C)CC4)ccc3N21` [Example 220, (S)-1-methyl-5-((1-methyl-1H-pyrazol-4-yl)methyl)-N-(1-methylcyclopropyl)-6-oxo-1,2,5,6-tetrahydro-[1,2,4]oxadiazino[4,3-a]quinazoline-8-sulfonamide] is higher in IC50: under 100 nM for the first, 100 to 1000 nM for the second.

First: C[C@@H]1CN=C2N(Cc3cccnc3C#N)C(=O)c3cc(S(=O)(=O)NC4(C)CC4)c(F)cc3N21 [Example 223, (R)-4-((2-cyanopyridin-3-yl)methyl)-8-fluoro-1-methyl-N-(1-methylcyclopropyl)-5-oxo-1,2,4,5-tetrahydroimidazo[1,2-a]quinazoline-7-sulfonamide]
Second: Cc1cccc(C#CC2CN=C3N(C)C(=O)c4cc(S(=O)(=O)NC5(C)CC5)ccc4N32)n1 (centres unmarked) [Example 225, 4-methyl-N-(1-methylcyclopropyl)-1-((6-methylpyridin-2-yl)ethynyl)-5-oxo-1,2,4,5-tetrahydroimidazo[1,2-a]quinazoline-7-sulfonamide]
The IC50 of the first is higher: 100 to 1000 nM for the first, under 100 nM for the second.
